Species on record: Rattus norvegicus
Experiment: Open TG-GATES - Regimen: Single
Assay type: toxicity, organism-based, Sprague-Dawley
Design: regimen Single, gender Male, age 6 weeks
Settings: in vivo, po, 75 mg/kg, route gavage, dose level High; for APTT / Bas / Eos / Fbg / Hb / Ht / Lym / MCH / MCHC / MCV / Mono / Neu / PT / Plat / RBC / Ret / WBC: tissue Blood; for KIDNEY_L / KIDNEY_R / KIDNEY_TOTAL: tissue Kidney; for LIVER: tissue Liver; for A/G / ALP / ALT / AST / BUN / CRE / Ca / Cl / DBIL / GLC / IP / K / LDH / Na / PL / RALB / TBIL / TC / TG / TP / gamma-GTP: tissue Plasma

## NC1=NC(=O)C(c2ccccc2)O1 (configuration not stated) [PEMOLINE]
3 h
  TERMINAL_BW: 208.2 g
  APTT: 16.9 s
  Bas: 0%
  Eos: 0.8%
  Fbg: 306.8 mg/dL
  Hb: 13.3 g/dL
  Ht: 39.3%
  Lym: 74.8%
  MCH: 21.9 pg
  MCHC: 33.9%
  MCV: 64.8 fL
  Mono: 2.6%
  Neu: 20.8%
  PT: 13.3 s
  Plat: 129.3 x10_4/uL
  RBC: 606.8 x10_4/ul
  Ret: 9.4%
  WBC: 99.2 x10_2/uL
  KIDNEY_L: 0.9 g
  KIDNEY_R: 0.9 g
  KIDNEY_TOTAL: 1.7 g
  LIVER: 8.9 g
  A/G: 1
  ALP: 1509.8 IU/L
  ALT: 46.4 IU/L
  AST: 87.6 IU/L
  BUN: 7.8 mg/dL
  CRE: 0.2 mg/dL
  Ca: 10.4 mg/dL
  Cl: 108.2 meq/L
  DBIL: 0.012 mg/dL
  GLC: 188.6 mg/dL
  IP: 8.2 mg/dL
  K: 3.7 meq/L
  LDH: 74.6 IU/L
  Na: 141.6 meq/L
  PL: 132.8 mg/dL
  RALB: 2.8 g/dL
  TBIL: 0.042 mg/dL
  TC: 80 mg/dL
  TG: 36.8 mg/dL
  TP: 5.5 g/dL
  gamma-GTP: 1.8 IU/L
6 h
  TERMINAL_BW: 208.1 g
  APTT: 17.1 s
  Bas: 0%
  Eos: 1%
  Fbg: 280.8 mg/dL
  Hb: 13.6 g/dL
  Ht: 40.2%
  Lym: 75.2%
  MCH: 22 pg
  MCHC: 33.9%
  MCV: 64.9 fL
  Mono: 3%
  Neu: 20%
  PT: 13.6 s
  Plat: 118.6 x10_4/uL
  RBC: 620.2 x10_4/ul
  Ret: 9.3%
  WBC: 89.6 x10_2/uL
  KIDNEY_L: 0.9 g
  KIDNEY_R: 0.9 g
  KIDNEY_TOTAL: 1.8 g
  LIVER: 7.6 g
  A/G: 1
  ALP: 1507.8 IU/L
  ALT: 40.6 IU/L
  AST: 104.8 IU/L
  BUN: 9 mg/dL
  CRE: 0.2 mg/dL
  Ca: 10.3 mg/dL
  Cl: 108.4 meq/L
  DBIL: 0.01 mg/dL
  GLC: 168.8 mg/dL
  IP: 9.3 mg/dL
  K: 3.7 meq/L
  LDH: 110.8 IU/L
  Na: 140.8 meq/L
  PL: 119 mg/dL
  RALB: 2.7 g/dL
  TBIL: 0.05 mg/dL
  TC: 77.4 mg/dL
  TG: 14 mg/dL
  TP: 5.4 g/dL
  gamma-GTP: 1 IU/L
9 h
  TERMINAL_BW: 209.6 g
  APTT: 17.2 s
  Bas: 0%
  Eos: 0.6%
  Fbg: 330.2 mg/dL
  Hb: 13.7 g/dL
  Ht: 40.1%
  Lym: 71.6%
  MCH: 22.2 pg
  MCHC: 34.2%
  MCV: 65 fL
  Mono: 2.2%
  Neu: 25%
  PT: 13.1 s
  Plat: 113 x10_4/uL
  RBC: 617.8 x10_4/ul
  Ret: 9.2%
  WBC: 80.9 x10_2/uL
  KIDNEY_L: 0.9 g
  KIDNEY_R: 0.9 g
  KIDNEY_TOTAL: 1.8 g
  LIVER: 7.3 g
  A/G: 1
  ALP: 1405.6 IU/L
  ALT: 34.4 IU/L
  AST: 89 IU/L
  BUN: 9 mg/dL
  CRE: 0.2 mg/dL
  Ca: 10.3 mg/dL
  Cl: 107.8 meq/L
  DBIL: 0.01 mg/dL
  GLC: 190.4 mg/dL
  IP: 10.4 mg/dL
  K: 3.5 meq/L
  LDH: 82 IU/L
  Na: 141.2 meq/L
  PL: 122.2 mg/dL
  RALB: 2.9 g/dL
  TBIL: 0.044 mg/dL
  TC: 75.6 mg/dL
  TG: 9.4 mg/dL
  TP: 5.7 g/dL
  gamma-GTP: 1.2 IU/L
24 h
  TERMINAL_BW: 200.9 g
  APTT: 15.7 s
  Bas: 0%
  Eos: 1%
  Fbg: 324.8 mg/dL
  Hb: 13.3 g/dL
  Ht: 38.1%
  Lym: 78.8%
  MCH: 21.9 pg
  MCHC: 34.8%
  MCV: 62.9 fL
  Mono: 2.2%
  Neu: 17.6%
  PT: 13.1 s
  Plat: 112.1 x10_4/uL
  RBC: 606.6 x10_4/ul
  Ret: 8.5%
  WBC: 84.2 x10_2/uL
  KIDNEY_L: 0.9 g
  KIDNEY_R: 0.9 g
  KIDNEY_TOTAL: 1.9 g
  LIVER: 8.6 g
  A/G: 1
  ALP: 1471 IU/L
  ALT: 40.8 IU/L
  AST: 92.6 IU/L
  BUN: 14 mg/dL
  CRE: 0.2 mg/dL
  Ca: 10.6 mg/dL
  Cl: 104.8 meq/L
  DBIL: 0.014 mg/dL
  GLC: 177.6 mg/dL
  IP: 8.6 mg/dL
  K: 4.1 meq/L
  LDH: 66.2 IU/L
  Na: 141.4 meq/L
  PL: 127.6 mg/dL
  RALB: 2.7 g/dL
  TBIL: 0.038 mg/dL
  TC: 80.4 mg/dL
  TG: 38.2 mg/dL
  TP: 5.4 g/dL
  gamma-GTP: 1 IU/L

Source: ChEMBL document CHEMBL3885861, “Open TG-GATES”
